# Source: PubChem BioAssay (NCI)
# Values joined by “and” are separate entries in the source; they are usually repeats but may differ in a detail not shown here. Identical values can stand only once.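 Briefly, cells in 96-well plates were exposed to five compound concentrations for 48 h, and endpoints were estimated by linear interpolation. The concentration for 50% growth inhibition is given as GI50. Definition used: TGI = concentration required for complete inhibition of growth.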
# Tests used:
# Test in all cases: DTP human tumour cell line panel, 48 h
# LOX IMVI melanoma = tested on: LOX IMVI melanoma
# K-562 leukemia = tested on: K-562 leukemia
# TK-10 renal = tested on: TK-10 renal
# HCC-2998 colon = tested on: HCC-2998 colon
# SK-OV-3 ovarian = tested on: SK-OV-3 ovarian
# CAKI-1 renal = tested on: CAKI-1 renal
# SK-MEL-28 melanoma = tested on: SK-MEL-28 melanoma
# PC-3 prostate = tested on: PC-3 prostate
# HT29 colon = tested on: HT29 colon
# HCT-15 colon = tested on: HCT-15 colon
Structure (SMILES),GI50 (LOX IMVI melanoma),TGI (LOX IMVI melanoma),GI50 (K-562 leukemia),TGI (K-562 leukemia),TGI (TK-10 renal) [µM],GI50 (HCC-2998 colon),TGI (HCC-2998 colon) [µM],GI50 (SK-OV-3 ovarian),TGI (SK-OV-3 ovarian) [µM],GI50 (CAKI-1 renal) [µM],TGI (CAKI-1 renal) [µM],GI50 (SK-MEL-28 melanoma),TGI (SK-MEL-28 melanoma) [µM],GI50 (PC-3 prostate),TGI (PC-3 prostate) [µM],GI50 (HT29 colon),TGI (HT29 colon),GI50 (HCT-15 colon),TGI (HCT-15 colon),GI50 (TK-10 renal) [µM]
CCCC(=O)Nc1ncnc2c1ncn2C1OC2COP(=O)(O)OC2C1OC(=O)CCC (centres undefined),> 1000 µM,> 1000 µM,> 1000 µM,> 1000 µM,> 1000,> 1000 µM,> 1000,> 1000 µM,> 1000,> 1000,> 1000,> 1000 µM,> 1000,> 1000 µM,> 1000,> 1000 µM,> 1000 µM,> 1000 µM,> 1000 µM,
Cc1cc(O)c(O)c(Oc2cc(C)cc(O)c2O)c1,,24.6 µM,,> 100 µM,36.3,,> 100,,> 100,,> 100,,> 100,,> 100,,41.1 µM,,29.9 µM,
CNc1ccc(C(=O)CC(O)CCC(C)C2OC(=O)CC(O)CC(=O)CC(O)CC(O)CC(O)CC(O)CC3(O)CC(O)C(C(=O)NCCc4ccccn4)C(CC(OC4OC(C)C(O)C(N)C4O)/C=C/C=C/C=C/C=C\C=C/C=C/C=C/C2C)O3)cc1 (centres undefined),2.11 µM,> 50 µM,2.43 µM,> 20.5 µM,0.499,1.59 µM,4.88,2.32 µM,> 50,0.165,0.633,0.161 µM,> 50,0.336 µM,> 11.6,2.65 µM,> 50 µM,4.75 µM,> 50 µM,0.128
CC(=O)OC1CC(C)c2c(Cl)ncnc21 (centres undefined),> 100 µM,> 100 µM,> 100 µM,> 100 µM,> 100,> 100 µM,> 100,> 100 µM,> 100,45.7,> 100,> 100 µM,> 100,> 100 µM,> 100,> 100 µM,> 100 µM,> 100 µM,> 100 µM,> 100
COc1ccc(CCN2COc3ccc4ccc(=O)oc4c3C2)cc1OC,,49.4 µM,,> 100 µM,> 100,,> 100,,> 100,,> 100,,> 100,,> 100,,> 100 µM,,> 100 µM,
CS(=O)(=O)c1ccc(-c2[nH]c3ccc(F)cc3c2/C=N/NC(N)=S)cc1,0.84 µM,> 100 µM,0.532 µM,41.2 µM,> 100,2.95 µM,14.7,1.86 µM,> 100,3.86,> 100,12.3 µM,> 100,0.51 µM,26.8,0.558 µM,15.2 µM,0.611 µM,> 100 µM,5.88
O=c1cc(-c2ccccc2)nc2cc(-c3ccco3)[nH]n12,15.2 µM,> 100 µM,4.06 µM,> 100 µM,96.9,13.3 µM,> 100,14.2 µM,82.8,5.21,55.4,8.78 µM,> 100,15 µM,> 100,4.22 µM,> 100 µM,6.16 µM,> 100 µM,19.8
COC(=O)c1cc(NC(=O)CN(CCN(CC(=O)O)CC(=O)Nc2ccc(O)c(C(=O)OC)c2)CC(=O)O)ccc1O,38.5 µM,> 100 µM,96.4 µM,> 100 µM,> 100,97.4 µM,> 100,45.5 µM,> 100,32,> 100,> 100 µM,> 100,96.2 µM,> 100,> 100 µM,> 100 µM,> 100 µM,> 100 µM,> 100
Cc1nc2sc(C(=O)Nc3cccc(Cl)c3C)c(N)c2cc1C(=O)c1ccccc1,0.331 µM,> 50 µM,0.199 µM,> 50 µM,> 50,1.01 µM,> 50,0.229 µM,> 50,0.214,> 50,1.45 µM,> 50,0.258 µM,> 50,0.202 µM,> 17.9 µM,0.226 µM,> 50 µM,2.48
O=C(Nc1cccc(-n2cc(-c3ccncc3)c(-c3ccc(O)c(Cl)c3)n2)c1)c1ccc(N2CCOCC2)c(C(F)(F)F)c1,1.61 µM,> 50 µM,1.45 µM,> 50 µM,> 50,3.44 µM,> 50,> 50 µM,> 50,2.24,> 50,3.75 µM,> 50,2.39 µM,> 50,2.36 µM,> 50 µM,1.21 µM,> 50 µM,> 50
CCNC(=O)c1ccc2c(c1)nc(-c1ccc(Cl)cc1)n2-c1cc(C(C)(C)C)[nH]n1,3.54 µM,14.4 µM,3.35 µM,16.8 µM,71.3,3.96 µM,26.7,3.6 µM,17.3,2.84,46.6,2.78 µM,11.7,2.87 µM,48.8,3.13 µM,9.71 µM,3.26 µM,18 µM,6.14
NCC(=O)NC(CO)C(=O)O (centres undefined),,> 100 µM,,> 100 µM,> 100,,> 100,,> 100,,> 100,,> 100,,> 100,,> 100 µM,,> 100 µM,
CC#CC(=O)N[C@H]1CCCN(c2c(F)cc(C(N)=O)c3[nH]c(C)c(C)c23)C1,14.9 µM,28.1 µM,26.8 µM,> 100 µM,95.7,16.6 µM,30.7,14.4 µM,59.6,13.4,34.1,17.4 µM,35.6,21.5 µM,62.2,25 µM,72.3 µM,15.9 µM,32.9 µM,24.5
COc1cc(/C=N/Nc2ncnc3c2cnn3Cc2ccccc2)ccc1O,> 17.7 µM,> 25 µM,> 6.57 µM,> 25 µM,19.1,15.2 µM,> 25,5.99 µM,16.8,> 19.9,> 25,> 19.6 µM,> 25,11.7 µM,> 25,14.9 µM,> 25 µM,> 25 µM,> 25 µM,6.39
CCCN(CCC)c1ccc(/C=N/NC(=O)c2cccnc2)cc1,17.3 µM,58.5 µM,8.02 µM,> 100 µM,> 100,25 µM,> 100,30.6 µM,> 100,30.1,> 100,33.6 µM,> 100,29.5 µM,> 100,11 µM,32 µM,19.8 µM,> 100 µM,32.4
COc1cc(C(=O)Nc2cc(O)c(C/C=C(\C)CCC=C(C)C)c(O)c2)cc2c1O[C@]1(C)CC[C@@H](O)C(C)(C)[C@H]1C2,0.0626 µM and 0.0809 µM,2.7 µM and 1.92 µM,0.0359 µM and 0.0659 µM,2.17 µM and 2.6 µM,28.9,1.49 µM and 2.13 µM,16.4,0.0926 µM and 0.114 µM,22.7,0.0394,11.9,0.178 µM and 0.629 µM,13.8,0.0302 µM and 0.0463 µM,17.8,1.42 µM and 0.955 µM,5.43 µM and 3.79 µM,0.471 µM and 0.628 µM,3.38 µM and 3.37 µM,2.54
